{
  "source": "PubChem BioAssay AID328",
  "about": "(DTP/NCI, 2004)",
  "test_system": "BDF1 mice, P388 leukemia ip, median survival T/C",
  "test": "NCI In Vivo Anticancer Drug Screen. Data for tumor model P388 Leukemia (intraperitoneal) in B6D2F1 (BDF1) mice",
  "conditions": "endpoint: median survival time, higher = longer survival",
  "how_it_was_run": "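Reported as T/C, where T is the survival measurement in dosed animals and C the same measurement in vehicle controls.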",
  "key": {"[1]": {"conditions": "dose: 50.0 mg/kg/injection, schedule: Q01DX009 (ip), vehicle: saline with Tween-80"}, "[2]": {"conditions": "dose: 100.0 mg/kg/injection, schedule: Q01DX009 (ip), vehicle: saline with Tween-80"}, "[3]": {"conditions": "dose: 200.0 mg/kg/injection, schedule: Q01DX009 (ip), vehicle: saline with Tween-80"}, "[4]": {"conditions": "dose: 100.0 mg/kg/injection, schedule: Q01DX009 (ip), vehicle: saline"}, "[5]": {"conditions": "dose: 100.0 mg/kg/injection, schedule: Q04DX003 (ip), vehicle: saline"}, "[6]": {"conditions": "dose: 200.0 mg/kg/injection, schedule: Q01DX009 (ip), vehicle: saline"}, "[7]": {"conditions": "dose: 200.0 mg/kg/injection, schedule: Q04DX003 (ip), vehicle: saline"}, "[8]": {"conditions": "dose: 100.0 mg/kg/injection, schedule: Q01DX009 (ip), vehicle: Klucel (hydroxypropylcellulose) (HPC)"}, "[9]": {"conditions": "dose: 100.0 mg/kg/injection, schedule: Q04DX003 (ip), vehicle: Klucel (hydroxypropylcellulose) (HPC)"}, "[10]": {"conditions": "dose: 200.0 mg/kg/injection, schedule: Q01DX009 (ip), vehicle: Klucel (hydroxypropylcellulose) (HPC)"}, "[11]": {"conditions": "dose: 400.0 mg/kg/injection, schedule: Q01DX009 (ip), vehicle: Klucel (hydroxypropylcellulose) (HPC)"}, "[12]": {"conditions": "dose: 400.0 mg/kg/injection, schedule: Q04DX003 (ip), vehicle: Klucel (hydroxypropylcellulose) (HPC)"}},
  "note": "Where “and” joins values, the source holds several entries; their conditions need not be identical. Identical values can stand only once. Toxic doses and inconclusive results are not listed.",
  "data": [
    {"smiles": "CC1CCC[N-]C1.CC1CCC[N-]C1.[Cl][Pt+2]([Cl])([Cl])[Cl]", "note": "(stereo not given)", "values": [
      {"measurement": "T/C", "setting": "dose: 3.12 mg/kg/injection, schedule: Q01DX009 (ip), vehicle: saline", "result": "150 % of control and 154 % of control"},
      {"measurement": "T/C", "setting": "dose: 6.25 mg/kg/injection, schedule: Q01DX009 (ip), vehicle: saline", "result": "172 % of control"},
      {"measurement": "T/C", "setting": "dose: 8.2 mg/kg/injection, schedule: Q01DX009 (ip), vehicle: saline", "result": "161 % of control"},
      {"measurement": "T/C", "setting": "dose: 25.0 mg/kg/injection, schedule: Q01DX009 (ip), vehicle: saline", "result": "154 % of control"}
    ]},
    {"smiles": "C[CH2][Ge]([CH2]C)[CH2]C.C[CH2][Ge]([CH2]C)[CH2]C.C[CH2][Ge]([CH2]C)[O][Ge]([CH2]C)[CH2]C", "values": [
      {"measurement": "T/C", "setting": "[1]", "result": "115 % of control and 116 % of control"},
      {"measurement": "T/C", "setting": "[2]", "result": "112 % of control"}
    ]},
    {"smiles": "O=C(O)c1ccccc1NSc1ccccc1[N+](=O)[O-]", "values": [
      {"measurement": "T/C", "setting": "[1]", "result": "97 % of control"},
      {"measurement": "T/C", "setting": "[2]", "result": "109 % of control"},
      {"measurement": "T/C", "setting": "[3]", "result": "111 % of control"}
    ]},
    {"smiles": "Cc1cc(N)on1", "values": [
      {"measurement": "T/C", "setting": "[4]", "result": "100 % of control"},
      {"measurement": "T/C", "setting": "[5]", "result": "109 % of control"},
      {"measurement": "T/C", "setting": "[6]", "result": "96 % of control"},
      {"measurement": "T/C", "setting": "[7]", "result": "109 % of control"},
      {"measurement": "T/C", "setting": "dose: 400.0 mg/kg/injection, schedule: Q04DX003 (ip), vehicle: saline", "result": "109 % of control"}
    ]},
    {"smiles": "Cc1cc(N(C)C)ccc1C=O", "values": [
      {"measurement": "T/C", "setting": "[8]", "result": "100 % of control"},
      {"measurement": "T/C", "setting": "[9]", "result": "100 % of control"},
      {"measurement": "T/C", "setting": "[10]", "result": "95 % of control"},
      {"measurement": "T/C", "setting": "[11]", "result": "109 % of control"},
      {"measurement": "T/C", "setting": "[12]", "result": "91 % of control"}
    ]},
    {"smiles": "Nc1cc(=O)[nH]c(O)c1C(=O)O", "values": [
      {"measurement": "T/C", "setting": "dose: 6.25 mg/kg/injection, schedule: Q04DX003 (ip), vehicle: saline", "result": "109 % of control"},
      {"measurement": "T/C", "setting": "dose: 12.5 mg/kg/injection, schedule: Q04DX003 (ip), vehicle: saline", "result": "100 % of control"},
      {"measurement": "T/C", "setting": "dose: 25.0 mg/kg/injection, schedule: Q04DX003 (ip), vehicle: saline", "result": "100 % of control"},
      {"measurement": "T/C", "setting": "dose: 35.0 mg/kg/injection, schedule: Q04DX003 (ip), vehicle: saline", "result": "100 % of control"},
      {"measurement": "T/C", "setting": "dose: 55.0 mg/kg/injection, schedule: Q04DX003 (ip), vehicle: saline", "result": "113 % of control"},
      {"measurement": "T/C", "setting": "dose: 80.0 mg/kg/injection, schedule: Q04DX003 (ip), vehicle: saline", "result": "100 % of control"},
      {"measurement": "T/C", "setting": "dose: 120.0 mg/kg/injection, schedule: Q04DX003 (ip), vehicle: saline", "result": "104 % of control"},
      {"measurement": "T/C", "setting": "dose: 180.0 mg/kg/injection, schedule: Q04DX003 (ip), vehicle: saline", "result": "86 % of control"},
      {"measurement": "T/C", "setting": "dose: 270.0 mg/kg/injection, schedule: Q04DX003 (ip), vehicle: saline", "result": "100 % of control"}
    ]},
    {"smiles": "Cc1ccc(C(=O)CCl)c(C)c1", "values": [
      {"measurement": "T/C", "setting": "dose: 12.5 mg/kg/injection, schedule: Q01DX009 (ip), vehicle: saline with Tween-80", "result": "100 % of control"},
      {"measurement": "T/C", "setting": "dose: 25.0 mg/kg/injection, schedule: Q01DX009 (ip), vehicle: saline with Tween-80", "result": "100 % of control"},
      {"measurement": "T/C", "setting": "[1]", "result": "95 % of control"}
    ]},
    {"smiles": "CCCCC(O)C1=CC(=O)C2CC(C)=C(C)CC2C1=O", "note": "(stereo not given)", "values": [
      {"measurement": "T/C", "setting": "dose: 100.0 mg/kg/injection, schedule: Q04DX003 (ip), vehicle: saline with Tween-80", "result": "92 % of control"},
      {"measurement": "T/C", "setting": "dose: 200.0 mg/kg/injection, schedule: Q04DX003 (ip), vehicle: saline with Tween-80", "result": "102 % of control"},
      {"measurement": "T/C", "setting": "dose: 400.0 mg/kg/injection, schedule: Q04DX003 (ip), vehicle: saline with Tween-80", "result": "100 % of control"}
    ]},
    {"smiles": "C#CCSc1ncnc2nc[nH]c12", "values": [
      {"measurement": "T/C", "setting": "[5]", "result": "100 % of control"},
      {"measurement": "T/C", "setting": "[7]", "result": "100 % of control"}
    ]},
    {"smiles": "Nc1ccc(Nc2ccccc2)c(S(=O)(=O)O)c1", "values": [
      {"measurement": "T/C", "setting": "dose: 50.0 mg/kg/injection, schedule: Q01DX009 (ip), vehicle: saline", "result": "116 % of control"},
      {"measurement": "T/C", "setting": "[4]", "result": "100 % of control"},
      {"measurement": "T/C", "setting": "[6]", "result": "108 % of control"},
      {"measurement": "T/C", "setting": "dose: 400.0 mg/kg/injection, schedule: Q01DX009 (ip), vehicle: saline", "result": "104 % of control and 116 % of control"}
    ]},
    {"smiles": "Cc1ccccc1C1c2ccccc2C(=O)c2cccc(C)c21", "note": "(stereo not given)", "values": [
      {"measurement": "T/C", "setting": "dose: 100.0 mg/kg/injection, schedule: Q01DX001 (ip), vehicle: Klucel (hydroxypropylcellulose) (HPC)", "result": "104 % of control"},
      {"measurement": "T/C", "setting": "[8]", "result": "105 % of control"},
      {"measurement": "T/C", "setting": "[9]", "result": "100 % of control"},
      {"measurement": "T/C", "setting": "dose: 200.0 mg/kg/injection, schedule: Q01DX001 (ip), vehicle: Klucel (hydroxypropylcellulose) (HPC)", "result": "109 % of control"},
      {"measurement": "T/C", "setting": "[10]", "result": "100 % of control"},
      {"measurement": "T/C", "setting": "dose: 200.0 mg/kg/injection, schedule: Q04DX003 (ip), vehicle: Klucel (hydroxypropylcellulose) (HPC)", "result": "95 % of control"},
      {"measurement": "T/C", "setting": "dose: 400.0 mg/kg/injection, schedule: Q01DX001 (ip), vehicle: Klucel (hydroxypropylcellulose) (HPC)", "result": "100 % of control"},
      {"measurement": "T/C", "setting": "[11]", "result": "100 % of control"},
      {"measurement": "T/C", "setting": "[12]", "result": "108 % of control"}
    ]},
    {"smiles": "COc1cc(OC)c(/C=C/c2ccncn2)c(OC)c1", "values": [
      {"measurement": "T/C", "setting": "[1]", "result": "101 % of control"},
      {"measurement": "T/C", "setting": "[2]", "result": "108 % of control"},
      {"measurement": "T/C", "setting": "[3]", "result": "117 % of control"}
    ]},
    {"smiles": "CC1(C)CCCC2(C)C3CCC(C31)C2OC(=O)c1ccc([N+](=O)[O-])cc1", "note": "(stereo not given)", "values": [
      {"measurement": "T/C", "setting": "dose: 50.0 mg/kg/injection, schedule: Q01DX001 (ip), vehicle: saline with Tween-80", "result": "100 % of control"},
      {"measurement": "T/C", "setting": "dose: 100.0 mg/kg/injection, schedule: Q01DX001 (ip), vehicle: saline with Tween-80", "result": "100 % of control"},
      {"measurement": "T/C", "setting": "dose: 200.0 mg/kg/injection, schedule: Q01DX001 (ip), vehicle: saline with Tween-80", "result": "105 % of control"}
    ]},
    {"smiles": "COc1cc2oc3ccccc3c(=O)c2cc1CSc1ccccc1N", "values": [
      {"measurement": "T/C", "setting": "[1]", "result": "123 % of control"},
      {"measurement": "T/C", "setting": "[2]", "result": "88 % of control"},
      {"measurement": "T/C", "setting": "[3]", "result": "90 % of control"}
    ]},
    {"smiles": "Nc1nc(SN=Nc2ccc(S(N)(=O)=O)cc2)c2[nH]cnc2n1", "values": [
      {"measurement": "T/C", "setting": "dose: 3.75 mg/kg/injection, schedule: Q01DX009 (ip), vehicle: saline with Tween-80", "result": "120 % of control"},
      {"measurement": "T/C", "setting": "dose: 7.5 mg/kg/injection, schedule: Q01DX009 (ip), vehicle: saline with Tween-80", "result": "104 % of control"},
      {"measurement": "T/C", "setting": "dose: 15.0 mg/kg/injection, schedule: Q01DX009 (ip), vehicle: saline with Tween-80", "result": "91 % of control"}
    ]},
    {"smiles": "O=C(OCC1OC(n2cnc3c(=S)nc[nH]c32)C(OC(=O)c2ccc([N+](=O)[O-])cc2)C1OC(=O)c1ccc([N+](=O)[O-])cc1)c1ccc([N+](=O)[O-])cc1", "note": "(stereo not given)", "values": [
      {"measurement": "T/C", "setting": "dose: 50.0 mg/kg/injection, schedule: Q01DX009 (ip), vehicle: Klucel (hydroxypropylcellulose) (HPC)", "result": "100 % of control"},
      {"measurement": "T/C", "setting": "[8]", "result": "109 % of control"},
      {"measurement": "T/C", "setting": "[10]", "result": "109 % of control"},
      {"measurement": "T/C", "setting": "[11]", "result": "118 % of control"}
    ]}
  ]
}
